Results on 20 compounds are retold here after ChEMBL document CHEMBL4368932 (Bioorg Med Chem, 2019).

Data set [1] addresses T1, Phosphatidylinositol 4,5-bisphosphate 3-kinase catalytic subunit delta isoform (Homo sapiens, UniProt O00329).
T1 sequence (O00329 whole entry): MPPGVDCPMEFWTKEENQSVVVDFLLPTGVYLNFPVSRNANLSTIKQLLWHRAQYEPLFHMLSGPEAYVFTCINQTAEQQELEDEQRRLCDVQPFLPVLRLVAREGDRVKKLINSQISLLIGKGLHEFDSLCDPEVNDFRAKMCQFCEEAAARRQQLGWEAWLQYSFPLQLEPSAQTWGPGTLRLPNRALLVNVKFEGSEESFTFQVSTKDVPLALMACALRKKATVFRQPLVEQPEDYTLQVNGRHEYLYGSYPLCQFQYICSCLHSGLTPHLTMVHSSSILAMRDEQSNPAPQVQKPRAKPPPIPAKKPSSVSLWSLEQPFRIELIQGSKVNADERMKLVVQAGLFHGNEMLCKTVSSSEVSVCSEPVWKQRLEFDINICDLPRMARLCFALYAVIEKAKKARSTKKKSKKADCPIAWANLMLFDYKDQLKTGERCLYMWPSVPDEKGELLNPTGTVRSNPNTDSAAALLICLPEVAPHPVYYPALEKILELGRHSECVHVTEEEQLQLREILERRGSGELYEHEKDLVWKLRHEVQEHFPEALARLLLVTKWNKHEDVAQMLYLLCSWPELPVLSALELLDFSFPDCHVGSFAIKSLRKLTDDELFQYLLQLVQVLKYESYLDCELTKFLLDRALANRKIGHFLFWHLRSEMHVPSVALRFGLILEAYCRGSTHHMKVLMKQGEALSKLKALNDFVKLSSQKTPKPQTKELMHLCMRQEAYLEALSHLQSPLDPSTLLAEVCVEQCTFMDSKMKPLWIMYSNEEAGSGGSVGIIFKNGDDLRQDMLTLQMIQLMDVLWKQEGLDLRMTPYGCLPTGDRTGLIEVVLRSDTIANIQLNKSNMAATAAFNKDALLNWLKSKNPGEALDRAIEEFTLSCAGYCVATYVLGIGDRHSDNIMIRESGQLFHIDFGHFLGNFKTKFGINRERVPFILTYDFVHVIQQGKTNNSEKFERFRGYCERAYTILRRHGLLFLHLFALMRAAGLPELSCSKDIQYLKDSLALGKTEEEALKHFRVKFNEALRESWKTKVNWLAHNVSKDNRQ
Description: Inhibition of recombinant human PI3Kdelta using PIP2 as substrate after 35 to 40 mins by HTRF assay.

In data set [2] the target is Phosphatidylinositol 4,5-bisphosphate 3-kinase catalytic subunit alpha isoform (Homo sapiens, UniProt P42336). Description: Inhibition of human PI3Kalpha using phosphatidyl inositol as substrate after 3 hrs by Kinase-Glo Plus reagent-based luminescence assay.
Data set [3] concerns the target Phosphatidylinositol 4,5-bisphosphate 3-kinase catalytic subunit beta isoform (Homo sapiens, UniProt P42338). As to the kind of experiment: Inhibition of recombinant human PI3Kbeta using PIP2 as substrate after 35 to 40 mins by HTRF assay.
The target in data set [4] is Phosphatidylinositol 4,5-bisphosphate 3-kinase catalytic subunit gamma isoform (Homo sapiens, UniProt P48736). As to the kind of experiment: Inhibition of recombinant human PI3Kgamma using PIP2 as substrate after 35 to 40 mins by HTRF assay.
The test system of data set [5] is B-cell. As to the kind of experiment: Antiproliferative activity against anti-IgM antibody-stimulated BALB/c mouse B cells after 2 days by Alamar Blue reagent-based assay. The conditions noted are these: 48 h.
Data set [6] in a line: Intrinsic clearance in CD1 mouse liver microsomes at 0.2 uM up to 45 mins in presence of NADPH by LC-MS/MS analysis. The note with it: read-out: CLH. Format: ADME, Microsome.
Data set [7] is described as follows: Inhibition of PI3K in rat Rat-1 cells assessed as decrease in AKT 1/2 phosphorylation at ser473 residues after 1 hr by AlphaScreen assay. It is filed as cell-based.
The nature of data set [8]: Half life in BALB/c mouse at 1 mg/kg, iv or 3 mg/kg, po by LC-MS/MS analysis. The conditions noted are these: in vivo. It is filed as ADME, organism-based.
The target in data set [9] is T2, Phosphatidylinositol 4,5-bisphosphate 3-kinase catalytic subunit delta isoform (Homo sapiens) (UniProt O00329).
T2 sequence (whole entry): T1 sequence (O00329 whole entry)
As to the kind of experiment: Inhibition of recombinant human PI3Kdelta at 0.1 uM using PIP2 as substrate after 35 to 40 mins by HTRF assay relative to control.

Sequence of Phosphatidylinositol 4,5-bisphosphate 3-kinase catalytic subunit beta isoform (P42338 whole entry, canonical isoform): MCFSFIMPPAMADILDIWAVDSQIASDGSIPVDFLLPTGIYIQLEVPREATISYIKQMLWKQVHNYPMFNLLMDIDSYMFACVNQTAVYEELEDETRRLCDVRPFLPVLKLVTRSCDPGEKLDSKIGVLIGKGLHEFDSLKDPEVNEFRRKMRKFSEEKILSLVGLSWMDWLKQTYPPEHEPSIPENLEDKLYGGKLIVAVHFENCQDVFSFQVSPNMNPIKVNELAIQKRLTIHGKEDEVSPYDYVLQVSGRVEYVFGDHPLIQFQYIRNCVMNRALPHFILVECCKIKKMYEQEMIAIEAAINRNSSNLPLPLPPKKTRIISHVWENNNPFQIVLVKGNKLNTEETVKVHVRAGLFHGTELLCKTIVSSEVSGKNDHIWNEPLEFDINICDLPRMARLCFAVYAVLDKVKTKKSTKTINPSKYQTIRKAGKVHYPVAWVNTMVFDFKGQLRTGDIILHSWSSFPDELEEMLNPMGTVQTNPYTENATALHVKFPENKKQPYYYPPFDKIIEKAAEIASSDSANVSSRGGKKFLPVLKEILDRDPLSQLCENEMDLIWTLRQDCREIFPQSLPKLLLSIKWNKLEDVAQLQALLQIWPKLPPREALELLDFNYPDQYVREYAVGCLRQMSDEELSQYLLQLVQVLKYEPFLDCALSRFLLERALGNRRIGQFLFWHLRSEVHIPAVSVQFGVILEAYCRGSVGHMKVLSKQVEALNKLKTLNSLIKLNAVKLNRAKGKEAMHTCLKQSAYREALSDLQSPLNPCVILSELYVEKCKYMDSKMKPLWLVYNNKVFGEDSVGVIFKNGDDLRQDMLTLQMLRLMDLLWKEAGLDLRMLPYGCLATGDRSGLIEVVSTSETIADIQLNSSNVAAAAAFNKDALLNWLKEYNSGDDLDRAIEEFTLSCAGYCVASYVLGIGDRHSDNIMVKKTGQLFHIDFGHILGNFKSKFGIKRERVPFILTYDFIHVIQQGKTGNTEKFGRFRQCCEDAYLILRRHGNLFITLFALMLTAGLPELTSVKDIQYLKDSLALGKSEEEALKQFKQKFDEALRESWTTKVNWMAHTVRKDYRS
Sequence of Phosphatidylinositol 4,5-bisphosphate 3-kinase catalytic subunit alpha isoform (P42336 whole entry, canonical isoform): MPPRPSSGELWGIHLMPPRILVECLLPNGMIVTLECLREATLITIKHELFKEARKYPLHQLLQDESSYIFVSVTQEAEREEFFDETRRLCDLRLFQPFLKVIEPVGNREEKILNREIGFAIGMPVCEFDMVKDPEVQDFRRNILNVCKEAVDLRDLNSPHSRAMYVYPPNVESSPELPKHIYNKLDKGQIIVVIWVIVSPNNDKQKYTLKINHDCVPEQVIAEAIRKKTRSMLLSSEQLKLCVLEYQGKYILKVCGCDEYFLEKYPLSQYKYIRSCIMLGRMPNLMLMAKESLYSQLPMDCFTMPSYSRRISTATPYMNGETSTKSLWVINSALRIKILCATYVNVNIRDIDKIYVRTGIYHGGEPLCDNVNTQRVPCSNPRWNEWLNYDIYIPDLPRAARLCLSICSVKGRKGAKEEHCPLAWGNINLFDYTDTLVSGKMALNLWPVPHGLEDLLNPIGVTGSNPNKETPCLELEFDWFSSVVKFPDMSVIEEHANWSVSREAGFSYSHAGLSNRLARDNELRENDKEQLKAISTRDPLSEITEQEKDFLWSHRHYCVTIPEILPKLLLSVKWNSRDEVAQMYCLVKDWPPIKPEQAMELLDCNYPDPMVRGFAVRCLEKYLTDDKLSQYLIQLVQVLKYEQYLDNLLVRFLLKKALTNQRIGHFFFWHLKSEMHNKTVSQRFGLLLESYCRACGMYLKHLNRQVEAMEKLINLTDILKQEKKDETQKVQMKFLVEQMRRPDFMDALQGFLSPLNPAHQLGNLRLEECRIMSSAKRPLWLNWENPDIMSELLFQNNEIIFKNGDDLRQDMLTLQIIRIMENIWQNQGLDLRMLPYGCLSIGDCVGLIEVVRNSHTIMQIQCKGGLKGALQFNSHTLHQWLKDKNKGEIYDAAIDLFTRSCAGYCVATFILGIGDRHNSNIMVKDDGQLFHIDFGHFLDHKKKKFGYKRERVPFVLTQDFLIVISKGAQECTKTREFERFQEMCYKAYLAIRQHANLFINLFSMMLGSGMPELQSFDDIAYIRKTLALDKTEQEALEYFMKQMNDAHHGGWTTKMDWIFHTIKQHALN
Sequence of Phosphatidylinositol 4,5-bisphosphate 3-kinase catalytic subunit gamma isoform (P48736 whole entry, canonical isoform): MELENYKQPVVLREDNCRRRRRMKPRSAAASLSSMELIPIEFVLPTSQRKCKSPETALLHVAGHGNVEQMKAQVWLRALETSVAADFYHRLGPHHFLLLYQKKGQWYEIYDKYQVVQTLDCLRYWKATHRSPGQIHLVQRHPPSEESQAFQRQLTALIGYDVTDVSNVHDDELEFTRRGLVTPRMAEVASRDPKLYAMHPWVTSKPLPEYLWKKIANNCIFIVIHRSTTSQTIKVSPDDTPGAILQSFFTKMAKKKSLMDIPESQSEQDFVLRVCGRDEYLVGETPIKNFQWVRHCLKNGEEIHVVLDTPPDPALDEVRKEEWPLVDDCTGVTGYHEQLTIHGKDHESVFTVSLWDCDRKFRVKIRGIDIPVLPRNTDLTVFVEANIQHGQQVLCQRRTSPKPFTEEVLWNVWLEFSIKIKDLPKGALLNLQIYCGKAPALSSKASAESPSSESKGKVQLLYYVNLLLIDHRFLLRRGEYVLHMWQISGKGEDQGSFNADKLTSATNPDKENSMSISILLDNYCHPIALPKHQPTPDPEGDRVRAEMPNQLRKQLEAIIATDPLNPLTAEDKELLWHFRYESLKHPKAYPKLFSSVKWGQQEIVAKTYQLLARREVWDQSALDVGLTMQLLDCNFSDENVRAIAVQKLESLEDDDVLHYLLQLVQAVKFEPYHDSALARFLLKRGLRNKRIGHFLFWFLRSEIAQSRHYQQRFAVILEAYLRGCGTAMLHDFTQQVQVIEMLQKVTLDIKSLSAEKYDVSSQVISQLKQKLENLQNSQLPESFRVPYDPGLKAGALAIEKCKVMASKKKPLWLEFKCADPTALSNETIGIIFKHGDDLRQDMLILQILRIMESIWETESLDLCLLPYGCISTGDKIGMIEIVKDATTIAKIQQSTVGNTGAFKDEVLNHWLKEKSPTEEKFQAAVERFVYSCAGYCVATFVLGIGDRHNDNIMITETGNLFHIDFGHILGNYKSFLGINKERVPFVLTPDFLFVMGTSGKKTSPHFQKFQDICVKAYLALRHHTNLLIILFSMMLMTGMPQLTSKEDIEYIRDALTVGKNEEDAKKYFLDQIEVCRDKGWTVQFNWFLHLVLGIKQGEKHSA

As to `COc1ncc(N2CCc3ncnc(-c4cnn(CC5CCOCC5)c4)c3C2)cc1C`, the IC50 was 110 nM in data set [1] and 4900 nM in data set [2].

For the compound `CCN1CCC(Nc2cc(-c3ncnc4c3CN(c3cnc(OC)c(C)c3)CC4)ccn2)CC1`, the IC50 is 8.5 nM in data set [1]; 4600 nM in [2]; more than 10000 nM in [3]; more than 10000 nM in data set [4]; 4.8 nM in data set [5]. Besides, in [6], the CLint scaled at 0.2 µM worked out at 160 mL/min/kg.

On to `COc1ncc(N2CCc3ncnc(Nc4cccc(C(=O)NC5CCOCC5)c4)c3C2)cc1C`, for which the IC50 in [1] was determined as 49 nM.

For `COCC(=O)N1CCC(Nc2cc(-c3ncnc4c3CN(c3cnc(OC)c(C)c3)CC4)ccn2)CC1`, the IC50 in data set [1] was 9.2 nM; in data set [2] it was 9800 nM; in data set [3], more than 10000 nM; in data set [4], more than 10000 nM; in [5], 7.9 nM. Besides, the CLint scaled at 0.2 µM in [6] is 580 mL/min/kg.

`COc1ncc(N2CCc3ncnc(-c4ccnc(NC5CCOCC5)c4)c3C2)cc1C`: the IC50 in [1] is 11 nM; in data set [2], 5800 nM; in [3], 5400 nM; in data set [4], more than 10000 nM; in data set [5] it was 7.1 nM.

In the case of `COc1ncc(N2CCc3ncnc(-c4cnn(C5CCOCC5)c4)c3C2)cc1C`, the IC50 in data set [1] came out at 180 nM; in data set [2], 2600 nM.

For `COc1ncc(N2CCc3ncnc(Nc4cccc(C)c4)c3C2)cc1C`, the concentration for half-maximal inhibition (IC50) in data set [1] is 220 nM.

For `COc1ncc(N2CCc3ncnc(-c4ccc(NCC5CCOCC5)nc4)c3C2)cc1C`, the IC50 in data set [1] amounted to 42 nM; in data set [2], 6100 nM.

Turning to `COc1ncc(N2CCc3ncnc(-c4ccnc(NCC5CCOCC5)c4)c3C2)cc1C`, the IC50 turned out to be 28 nM in data set [1], 7500 nM in data set [2], 8900 nM in data set [3] and 17 nM in data set [5].

`COc1ncc(N2CCc3ncnc(-c4ccc(NC5CCOCC5)nc4)c3C2)cc1C`: the half-maximal inhibitory concentration (IC50) in [1] stood at 150 nM.

Turning to `COc1ncc(N2CCc3ncnc(-c4ccnc(NC5CCNCC5)c4)c3C2)cc1C`, the IC50 in data set [1] is 25 nM; in data set [2] it was more than 10000 nM; in data set [3], more than 10000 nM; in data set [4], more than 10000 nM; in data set [5] it was 24 nM.

`COc1ncc(N2CCc3ncnc(-c4ccnc(N[C@H]5CC[C@H](O)CC5)c4)c3C2)cc1C`: the IC50 was determined as 27 nM in [1], 7300 nM in data set [2] and 24 nM in [5].

Consider `COc1ncc(N2CCc3ncnc(-c4ccnc(OC5CCN(C)CC5)c4)c3C2)cc1C`, for which, in [1], the IC50 worked out at 45 nM.

Turning to `COc1ncc(N2CCc3ncnc(O[C@H]4CCN(C(=O)C5CCOCC5)C4)c3C2)cc1C`, the IC50 is 153 nM in data set [7] and 24 nM in data set [5]. Besides, in [8], the half-life was 40.2 min.

On to `COc1ncc(N2CCc3ncnc(-c4ccnc(NC5CCN(S(C)(=O)=O)CC5)c4)c3C2)cc1C`, for which the values for the IC50 in data set [1], in [2] and in data set [5] were 9.6 nM, 1400 nM and 12 nM, respectively. Further, the CLint scaled at 0.2 µM in [6] is more than 1000 mL/min/kg.

On to `COc1ncc(N2CCc3ncnc(Nc4ccccc4)c3C2)cc1C`, for which the inhibition in data set [9] came to 14%.

As for `COCCNc1cc(-c2ncnc3c2CN(c2cnc(OC)c(C)c2)CC3)ccn1`, in data set [1], the IC50 turned out to be 39 nM.

In the case of `CCOC(=O)c1cccc(Nc2ncnc3c2CN(c2cnc(OC)c(C)c2)CC3)c1`, the IC50 in data set [1] is 120 nM.

Take `COc1ncc(N2CCc3ncnc(Nc4cccc(C(=O)N5CCOCC5)c4)c3C2)cc1C`: the half-inhibitory concentration (IC50) in data set [1] came to 47 nM.

Regarding `COc1ncc(N2CCc3ncnc(-c4ccnc(NCc5ccccc5)c4)c3C2)cc1C`, the IC50 in [1] came to 87 nM.
